Assay results taken from US20260242372A1, “NOVEL IMIDAZOPYRIDINE AND PYRAZOLOPYRIDINE SULFONAMIDE DERIVATIVES” (Hoffmann-La Roche Inc., priority 2022, published 2026).

Molecular target: human GPR17 short isoform (Homo sapiens, UniProt Q13304)
Experiment: GPR17 cAMP assay (hGPR17 cAMP, TR-FRET, antagonist mode)
Format: cell-based
Settings: CHO-K1 cells stably expressing human GPR17 short isoform; EC80 of agonist MDL29,951; forskolin 15 μM; 30 min at room temperature

Sequence of human GPR17 short isoform (Q13304 29-367): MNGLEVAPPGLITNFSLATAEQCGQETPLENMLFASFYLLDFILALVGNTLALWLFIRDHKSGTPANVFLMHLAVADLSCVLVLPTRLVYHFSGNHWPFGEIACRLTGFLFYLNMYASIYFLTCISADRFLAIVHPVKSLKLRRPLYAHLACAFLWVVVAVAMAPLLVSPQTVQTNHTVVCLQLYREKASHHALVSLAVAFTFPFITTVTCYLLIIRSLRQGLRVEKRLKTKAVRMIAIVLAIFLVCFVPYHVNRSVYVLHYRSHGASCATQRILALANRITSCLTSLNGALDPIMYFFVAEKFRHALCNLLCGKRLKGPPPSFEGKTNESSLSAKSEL

Row | Structure (SMILES) | IC50 [nM]
1 | COc1nc(C2COC2)c(F)cc1NS(=O)(=O)c1cnc2cc(Cl)ccn12 [Example 70, 7-chloro-N-[5-fluoro-2-methoxy-6-(oxetan-3-yl)-3-pyridyl]imidazo[1,2-a]pyridine-3-sulfonamide] | 407
2 | COc1c(C)ccn2c(S(=O)(=O)Nc3cc(F)c(C#N)cc3F)cnc12 [Example 98, N-(4-cyano-2,5-difluoro-phenyl)-8-methoxy-7-methyl-imidazo[1,2-a]pyridine-3-sulfonamide] | 819
3 | Cc1ccn2c(S(=O)(=O)Nc3cc(F)c(CC#N)cc3F)cnc2c1C#N [Example 67, 8-cyano-N-[4-(cyanomethyl)-2,5-difluoro-phenyl]-7-methyl-imidazo[1,2-a]pyridine-3-sulfonamide] | 301
4 | COc1nc(OCC(F)F)c(F)cc1NS(=O)(=O)c1cnc2n1CC(C)C2 (stereo not shown) [Example 72, N-[6-(2,2-difluoroethoxy)-5-fluoro-2-methoxy-3-pyridyl]-6-methyl-6,7-dihydro-5H-pyrrol[1,2-a]imidazole-3-sulfonamide] | 449
5 | COc1nc(C2COC2)c(F)cc1NS(=O)(=O)c1cnn2cc(Br)ccc12 [Example 87, 6-bromo-N-[5-fluoro-2-methoxy-6-(oxetan-3-yl)-3-pyridyl]pyrazolo[1,5-a]pyridine-3-sulfonamide] | 367
6 | Cc1ccn2c(S(=O)(=O)Nc3cc(F)c(OC(F)F)nc3OC(F)F)cnc2c1C#N [Example 66, N-[2,6-bis(difluoromethoxy)-5-fluoro-3-pyridyl]-8-cyano-7-methyl-imidazo[1,2-a]pyridine-3-sulfonamide] | 289
7 | COc1nc(OCC(F)F)c(F)cc1NS(=O)(=O)c1cnn2c1COC(C)C2 (stereo not shown) [Example 88, N-[6-(2,2-difluoroethoxy)-5-fluoro-2-methoxy-3-pyridyl]-6-methyl-6,7-dihydro-4H-pyrazolo[5,1-c][1,4]oxazine-3-sulfonamide] | 692

Stronger by IC50, values ahead:

Row | IC50 [nM] | Structure (SMILES)
8 | 45 | N#CCc1cc(F)c(NS(=O)(=O)c2cnc3cc(Br)ccn23)cc1F [Example 34, 7-bromo-N-[4-(cyanomethyl)-2,5-difluoro-phenyl]imidazo[1,2-a]pyridine-3-sulfonamide]
9 | 23 | COc1nc(C2CC2)c(F)cc1NS(=O)(=O)c1cnc2cc(Cl)ccn12 [Example 25, 7-chloro-N-(6-cyclopropyl-5-fluoro-2-methoxy-3-pyridyl)imidazo[1,2-a]pyridine-3-sulfonamide]
10 | 11 | COc1nc(CCC(F)F)c(F)cc1NS(=O)(=O)c1cnc2cc(Cl)ccn12 [Example 9, 7-chloro-N-[6-(3,3-difluoropropyl)-5-fluoro-2-methoxy-3-pyridyl]imidazo[1,2-a]pyridine-3-sulfonamide]
11 | 20 | COc1nc(NS(=O)(=O)c2cnn3cc(Br)ccc23)c(F)cc1CC#N [Example 79, 6-bromo-N-[5-(cyanomethyl)-3-fluoro-6-methoxy-2-pyridyl]pyrazolo[1,5-a]pyridine-3-sulfonamide]
12 | 100 | COc1nc(C2CC2)c(F)cc1NS(=O)(=O)c1cnn2cc(Br)ccc12 [Example 82, 6-bromo-N-(6-cyclopropyl-5-fluoro-2-methoxy-3-pyridyl)pyrazolo[1,5-a]pyridine-3-sulfonamide]
13 | 8 | COc1nc(OCC(F)F)c(F)cc1NS(=O)(=O)c1cnc2cc(OC(F)F)ccn12 [Example 5, N-[6-(2,2-difluoroethoxy)-5-fluoro-2-methoxy-3-pyridyl]-7-(difluoromethoxy)imidazo[1,2-a]pyridine-3-sulfonamide]
14 | 89 | COc1nc(NS(=O)(=O)c2cnc3nc(C4CC4)ccn23)c(F)cc1OCC(F)F [Example 49, 7-cyclopropyl-N-[5-(2,2-difluoroethoxy)-3-fluoro-6-methoxy-2-pyridyl]imidazo[1,2-a]pyrimidine-3-sulfonamide]
15 | 27 | COc1nc(OCC(F)F)c(F)cc1NS(=O)(=O)c1cnc2nc(Br)ccn12 [Example 105, 7-bromo-N-[6-(2,2-difluoroethoxy)-5-fluoro-2-methoxy-3-pyridyl]imidazo[1,2-a]pyrimidine-3-sulfonamide]
16 | 217 | COc1nc(OCC(F)F)c(F)cc1NS(=O)(=O)c1cnc2n1CCCC2 [Example 63, N-[6-(2,2-difluoroethoxy)-5-fluoro-2-methoxy-3-pyridyl]-5,6,7,8-tetrahydroimidazo[1,2-a]pyridine-3-sulfonamide]
